# Experimental data reported in patent US20080261309A1, “IN VITRO MULTIPLICATION OF HOODIA PLANTS” (CONOPCO, INC., D/B/A/ UNILEVER, priority 2007, published 2008).
# Where “and” joins values, the source holds several entries; their conditions need not be identical. Equal entries are not always repeated.
# Key:
# Hoodia explants [1] = test: Effect of BAP and IAA concentrations and combinations on shoot multiplication; assay type: cell-based, Hoodia gordonii
# Experimental: In all the multiplication and later rooting trials, the experiments were carried out in a randomised factorial design with at least four replicates per treatment. The student's t-test was used to determine significant difference between the phytohormone treatments. P values≦0.05 was considered significant.
# This example tested the effect of different benzylaminopurine (BAP, cytokinin), indoleacetic acid (IAA, auxin) concentration and combinations on shoot multiplication.
# The basal salt medium used for this experiment was M&S basal salt and vitamins. All the other components were the same as used for initiation medium in Example 1. […] Factorial experiments were designed to test the effect of these phytohormones on shoot multiplication.
# Each treatment had four replicates. Results were obtained after two sub-cultures.
# Hoodia shoots = test: Effect of sucrose concentration on new shoot formation; assay type: cell-based, Hoodia gordonii; conditions: lowering sucrose from 30 g/l to 20 g/l in the multiplication medium
# Description: Example 6 tested the effect of three sucrose concentrations 0, 20 and 30 g/l on new shoot formation. All the other supplements were the same as for the initiation medium in Example 1. M&S basal salt and vitamin was used as the basal medium.
# The sucrose concentrations used for the multiplication experiments were 0, 20 and 30 g/l respectively. There was no multiplication on plants placed in the control (0 g/l) medium which had no sugar. The shoots were stunted and started to turn to yellow after three weeks in culture.
# H. gordonii shoot tips = test: Sterilisation of shoot tips: clean plants free of visible bacteria or fungal growth; set-up: species or system Hoodia gordonii
# Experimental: Example 1 investigated the effect of various sterilization protocols on the number of clean shoots and their ability to produce new shoots after sterilization.
# A total of 211 shoot tips (5-6 cm) of fresh H. gordonii plant material were collected from cultivation sites.
# The shoot tips were washed thoroughly for 3-5 minutes under running tap water and liquid detergent to remove any debris from the field. The spikes on some of the plants were carefully removed with a surgical blade before the sterilisation process. […] Each tub contained around 10 shoot tips placed in 300 ml of the sterilizing solution. The tubs were placed on a shaker at low speed 80 rpm for 5 minutes. After 5 minutes, the mercuric chloride was poured out and the plants were rinsed once in sterile distilled water. After rinsing with sterile distilled water, a second sterilisation process with 30% sodium hypochlorite solution was carried out. The tubs were placed on a shaker at a speed of 80 rpm for 30 or 40 minutes. A total of 188 shoots were sterilized for 30 minutes while […] shoots were sterilized for 40 minutes. After draining the sodium hypochlorite, a batch of the plants were rinsed in distilled sterile water before putting in the initiation medium white another batch was placed directly into the initiation medium without rinsing. Recording of the percentage clean plants was done two weeks after initiation. Clean plants were shoots that were free of visible bacteria or fungal growth.
# After sterilisation, the shoot tips were cultured on Murashige and Skoog (M&S) basal salt medium with M&S vitamins supplemented with 30 g/l sucrose, 3 g/l gelrite, 25 mg/l cefotaxime. The phytohormones used for the initiation medium were 17.74 μM Benzylaminopurine (BAP) and 5.71 μM Indole acetic acid (IAA). The pH of all the media tested was adjusted to 5.8 with either 1M potassium hydroxide (KOH) or 1N hydrochloric acid (HCl) before autoclaving at 121° C. for 20 minutes. Each 250 ml bottle contained one shoot tip. All the cultures were incubated at 26±2° C. in a growth room with a 16/8 hour light/dark photoperiod (39-90 μE/m^2/s). New shoot growth normally started a week after sterilisation. After two weeks in culture, bottles that were visibly clean were counted.
# Hoodia explants [2] = test: Effect of gibberellic acid concentrations on shoot elongation and proliferation; assay type: cell-based, Hoodia gordonii; conditions: for Number of new shoots: replicates 1-7
# Experimental: This Example investigated the effect of various giberellic acid concentrations on shoot elongation and proliferation.
# An average of four shoots per explant was observed when the GA3 concentration was increased from 2.89 μM to 5.78 μM with 17.74 μM of BAP and 5.71 μM of IAA. As the concentration increased, the shoot length was retarded but side shoots were formed.
structure (smiles),measurement,setting,value
"c1ccc(CNc2ncnc3[nH]cnc23)cc1 [BAP, benzylaminopurine]",Average shoots per explant,Hoodia explants [1]; BAP 17.74 μM with IAA 5.71 μM,4
same,Callus growth,"Hoodia explants [1]; BAP 17.74 μM with IAA 5.71 μM, compared to BAP 22.19 μM",less callus growth
same,Average side shoots per explant,Hoodia explants [1]; BAP 22.19 μM and IAA 5.71 μM,four
same,Auxiliary shoots production,Hoodia explants [1]; BAP concentrations higher than 44.38 μM,retarded
OC[C@H]1O[C@@](CO)(O[C@H]2O[C@H](CO)[C@@H](O)[C@H](O)[C@H]2O)[C@@H](O)[C@@H]1O [sucrose],Effect on shoot development and multiplication,Hoodia shoots,no significant effect
OCl [sodium hypochlorite],Appearance of shoot tips after sterilisation,H. gordonii shoot tips; 30 minute treatment,still green
same,Number of clean plants,"H. gordonii shoot tips; 30 minutes of sterilisation, out of 188 plants",170 plants out of 188
same,Appearance of shoot tips after sterilisation,H. gordonii shoot tips; 40 minute treatment,heavily bleached on the external tissue
same,Number of clean plants,"H. gordonii shoot tips; 40 minutes of sterilisation, out of 44 total",41 plants out of 44
same,Difference in time taken for shoots to emerge,"H. gordonii shoot tips; 40 minutes versus 30 minutes bleach treatment, in favour of 30 minutes",about one
same,Contamination rate,"H. gordonii shoot tips; sterilizing only with sodium hypochlorite (no mercuric chloride), field grown cultures",80%
"C=C1C[C@]23C[C@@]1(O)CC[C@H]2[C@@]12C=C[C@H](O)[C@@](C)(C(=O)O1)[C@H]2[C@@H]3C(=O)O [GA3, gibberellic acid]",Number of new shoots,Hoodia explants [2]; GA3 1.44 μM,1 (3×) and 2 (2×) and 0 (2×)
same,Shoot elongation and multiplication,Hoodia explants [2]; GA3 2.89 μM and 5.77 μM,elongated and multiplied better
same,Number of new shoots,Hoodia explants [2]; GA3 2.89 μM,3 (3×) and 2 (2×) and 4 (2×)
same,Increase in length of the initial explant,Hoodia explants [2]; GA3 5.77 μM,~1 cm
same,Number of new shoots,Hoodia explants [2]; GA3 5.77 μM,4 (2×) and 5 (2×) and 6 and 7 and 8
same,Average shoots per explant,Hoodia explants [2]; GA3 increased from 2.89 μM to 5.78 μM with 17.74 μM BAP and 5.71 μM IAA,four
